From PubChem BioAssay (NCI)
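1) Cells in 96-well plates. 2) Compound, 48 h, 5 concentrations. 3) Linear interpolation between surrounding doses. 4) Unreached endpoint = highest concentration. TGI denotes the concentration required for complete inhibition of growth.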

Assays:
Assay in all cases: NCI anticancer screen, dose series, 48 h
COLO 205 colon = system: COLO 205 colon
NCI-H226 lung = system: NCI-H226 lung
M14 melanoma = system: M14 melanoma
LOX IMVI melanoma = system: LOX IMVI melanoma
HOP-92 NSCLC = system: HOP-92 NSCLC
UACC-62 melanoma = system: UACC-62 melanoma
BT-549 breast = system: BT-549 breast
NCI/ADR-RES ovarian = system: NCI/ADR-RES ovarian
MDA-MB-435 = system: MDA-MB-435
A498 renal = system: A498 renal
RXF 393 renal = system: RXF 393 renal
SW-620 colon = system: SW-620 colon
NCI-H23 lung = system: NCI-H23 lung
HL-60(TB) leukemia = system: HL-60(TB) leukemia
EKVX NSCLC = system: EKVX NSCLC
SF-268 CNS = system: SF-268 CNS
HCC-2998 colon = system: HCC-2998 colon
SF-539 CNS = system: SF-539 CNS
SK-MEL-5 melanoma = system: SK-MEL-5 melanoma
OVCAR-3 ovarian = system: OVCAR-3 ovarian
HS 578T breast = system: HS 578T breast
DU-145 prostate = system: DU-145 prostate
SNB-75 CNS = system: SNB-75 CNS
786-0 renal = system: 786-0 renal
KM12 colon = system: KM12 colon
NCI-H460 lung = system: NCI-H460 lung
RPMI-8226 leukemia = system: RPMI-8226 leukemia
OVCAR-5 ovarian = system: OVCAR-5 ovarian
SK-MEL-2 melanoma = system: SK-MEL-2 melanoma
NCI-H522 lung = system: NCI-H522 lung
SNB-19 CNS = system: SNB-19 CNS
SK-OV-3 ovarian = system: SK-OV-3 ovarian
OVCAR-8 ovarian = system: OVCAR-8 ovarian
OVCAR-4 ovarian = system: OVCAR-4 ovarian
U251 CNS = system: U251 CNS
T-47D breast = system: T-47D breast
UACC-257 melanoma = system: UACC-257 melanoma
SF-295 CNS = system: SF-295 CNS
UO-31 renal = system: UO-31 renal
A549 NSCLC = system: A549 NSCLC
TK-10 renal = system: TK-10 renal
SN12C renal = system: SN12C renal
SR leukemia = system: SR leukemia
HT29 colon = system: HT29 colon
SK-MEL-28 melanoma = system: SK-MEL-28 melanoma
ACHN renal = system: ACHN renal
HCT-116 colon = system: HCT-116 colon
MDA-N = system: MDA-N
PC-3 prostate = system: PC-3 prostate
MALME-3M melanoma = system: MALME-3M melanoma
CAKI-1 renal = system: CAKI-1 renal
HCT-15 colon = system: HCT-15 colon
IGROV1 ovarian = system: IGROV1 ovarian
MCF7 breast = system: MCF7 breast
MOLT-4 leukemia = system: MOLT-4 leukemia
K-562 leukemia = system: K-562 leukemia
HOP-62 NSCLC = system: HOP-62 NSCLC
MDA-MB-231 breast = system: MDA-MB-231 breast
CCRF-CEM leukemia = system: CCRF-CEM leukemia

## COc1cc(/C=N/c2nc3cc4sc(/N=C/c5cc(OC)c(OC)c(OC)c5)nc4cc3s2)cc(OC)c1OC
COLO 205 colon
  TGI: > 100 µM
NCI-H226 lung
  TGI: > 100 µM
M14 melanoma
  TGI: > 100 µM
LOX IMVI melanoma
  TGI: > 100 µM
HOP-92 NSCLC
  TGI: > 100 µM
UACC-62 melanoma
  TGI: > 100 µM
BT-549 breast
  TGI: > 100 µM
NCI/ADR-RES ovarian
  TGI: > 100 µM
MDA-MB-435
  TGI: > 100 µM
A498 renal
  TGI: > 100 µM
RXF 393 renal
  TGI: > 100 µM
SW-620 colon
  TGI: > 100 µM
NCI-H23 lung
  TGI: > 100 µM
HL-60(TB) leukemia
  TGI: > 100 µM
EKVX NSCLC
  TGI: > 100 µM
SF-268 CNS
  TGI: > 100 µM
HCC-2998 colon
  TGI: > 100 µM
SF-539 CNS
  TGI: 40.8 µM
SK-MEL-5 melanoma
  TGI: > 100 µM
OVCAR-3 ovarian
  TGI: > 100 µM
HS 578T breast
  TGI: > 100 µM
DU-145 prostate
  TGI: > 100 µM
SNB-75 CNS
  TGI: > 100 µM
786-0 renal
  TGI: > 100 µM
KM12 colon
  TGI: > 100 µM
NCI-H460 lung
  TGI: > 100 µM
RPMI-8226 leukemia
  TGI: > 100 µM
OVCAR-5 ovarian
  TGI: > 100 µM
SK-MEL-2 melanoma
  TGI: > 100 µM
NCI-H522 lung
  TGI: > 100 µM
SNB-19 CNS
  TGI: > 100 µM
SK-OV-3 ovarian
  TGI: > 100 µM
OVCAR-8 ovarian
  TGI: > 100 µM
OVCAR-4 ovarian
  TGI: > 100 µM
U251 CNS
  TGI: > 100 µM
T-47D breast
  TGI: > 100 µM
UACC-257 melanoma
  TGI: > 100 µM
SF-295 CNS
  TGI: > 100 µM
UO-31 renal
  TGI: > 100 µM
A549 NSCLC
  TGI: > 100 µM
TK-10 renal
  TGI: > 100 µM
SN12C renal
  TGI: > 100 µM
SR leukemia
  TGI: > 100 µM
HT29 colon
  TGI: > 100 µM
SK-MEL-28 melanoma
  TGI: 39.1 µM
ACHN renal
  TGI: > 100 µM
HCT-116 colon
  TGI: > 100 µM
MDA-N
  TGI: 81.7 µM
PC-3 prostate
  TGI: > 100 µM
MALME-3M melanoma
  TGI: > 100 µM
CAKI-1 renal
  TGI: > 100 µM
HCT-15 colon
  TGI: > 100 µM
IGROV1 ovarian
  TGI: > 100 µM
MCF7 breast
  TGI: > 100 µM
MOLT-4 leukemia
  TGI: > 100 µM
K-562 leukemia
  TGI: > 100 µM
HOP-62 NSCLC
  TGI: > 100 µM
MDA-MB-231 breast
  TGI: > 100 µM

## C=C1[C@H](OCC(C)C)[C@@H](O)[C@@H](OC(=O)c2cccnc2)C(C)(C)/C=C/[C@H](C)[C@H](OC(C)=O)[C@@]2(O)C[C@@](C)(OC(C)=O)[C@H](OC(=O)c3ccccc3)[C@@H]2[C@H]1OC(C)=O
COLO 205 colon
  TGI: > 5 µM
NCI-H226 lung
  TGI: 4.57 µM
M14 melanoma
  TGI: > 4.49 µM
LOX IMVI melanoma
  TGI: > 5 µM
HOP-92 NSCLC
  TGI: > 5 µM
UACC-62 melanoma
  TGI: > 5 µM
BT-549 breast
  TGI: > 4.23 µM
NCI/ADR-RES ovarian
  TGI: > 3.25 µM
MDA-MB-435
  TGI: > 3.97 µM
A498 renal
  TGI: 2.79 µM
RXF 393 renal
  TGI: > 5 µM
SW-620 colon
  TGI: > 5 µM
NCI-H23 lung
  TGI: > 3.13 µM
HL-60(TB) leukemia
  TGI: > 2.09 µM
EKVX NSCLC
  TGI: > 5 µM
SF-268 CNS
  TGI: > 3.24 µM
HCC-2998 colon
  TGI: 1.59 µM
SF-539 CNS
  TGI: 1.58 µM
SK-MEL-5 melanoma
  TGI: > 5 µM
OVCAR-3 ovarian
  TGI: > 3.67 µM
HS 578T breast
  TGI: > 2.39 µM
DU-145 prostate
  TGI: > 5 µM
SNB-75 CNS
  TGI: > 2.87 µM
786-0 renal
  TGI: > 5 µM
KM12 colon
  TGI: > 2.97 µM
NCI-H460 lung
  TGI: 1.52 µM
RPMI-8226 leukemia
  TGI: 3.35 µM
OVCAR-5 ovarian
  TGI: > 5 µM
SK-MEL-2 melanoma
  TGI: > 3.78 µM
NCI-H522 lung
  TGI: 2.54 µM
SNB-19 CNS
  TGI: > 5 µM
SK-OV-3 ovarian
  TGI: > 5 µM
OVCAR-8 ovarian
  TGI: > 3.28 µM
OVCAR-4 ovarian
  TGI: > 5 µM
U251 CNS
  TGI: > 5 µM
T-47D breast
  TGI: > 5 µM
UACC-257 melanoma
  TGI: > 5 µM
SF-295 CNS
  TGI: > 4.14 µM
UO-31 renal
  TGI: > 1.24 µM
A549 NSCLC
  TGI: > 5 µM
TK-10 renal
  TGI: > 5 µM
SN12C renal
  TGI: > 5 µM
SR leukemia
  TGI: > 3.35 µM
HT29 colon
  TGI: 1.17 µM
SK-MEL-28 melanoma
  TGI: > 5 µM
ACHN renal
  TGI: 2.87 µM
HCT-116 colon
  TGI: > 5 µM
MDA-N
  TGI: > 5 µM
PC-3 prostate
  TGI: > 5 µM
MALME-3M melanoma
  TGI: 1.46 µM
CAKI-1 renal
  TGI: > 5 µM
HCT-15 colon
  TGI: 4.97 µM
IGROV1 ovarian
  TGI: > 5 µM
MCF7 breast
  TGI: > 5 µM
MOLT-4 leukemia
  TGI: > 2.79 µM
CCRF-CEM leukemia
  TGI: > 2.82 µM
K-562 leukemia
  TGI: > 3.36 µM
HOP-62 NSCLC
  TGI: 2.26 µM
MDA-MB-231 breast
  TGI: > 5 µM
